Measurements from the NIST ThermoML archive (doi:10.1016/j.fluid.2018.04.007).

How the values were obtained:
[1] = relative permittivity at various frequencies (dimensionless); xn = mol fraction of the nth substance listed; settings: 101 kPa, Liquid, Frequency=1 MHz, Parallel plate capacitor
[2] = refractive index (Na D-line) (dimensionless); xn = mol fraction of the nth substance listed; settings: 101 kPa, Liquid, Standard Abbe refractometry

CCCCCCN [1-hexanamine] + CCCCCCCO
Settings	refractive index, 293.15 K	refractive index, 298.15 K	refractive index, 303.15 K	relative permittivity, 293.15 K	relative permittivity, 298.15 K	relative permittivity, 303.15 K
[1], x2 = 0	–	–	–	3.963	3.903	3.848
[1], x2 = 0.0503	–	–	–	4.202	4.133	4.07
[1], x2 = 0.095	–	–	–	4.414	4.339	4.271
[1], x2 = 0.1606	–	–	–	4.731	4.644	4.567
[1], x2 = 0.2073	–	–	–	4.97	4.882	4.796
[1], x2 = 0.3067	–	–	–	5.497	5.392	5.291
[1], x2 = 0.4038	–	–	–	6.064	5.934	5.811
[1], x2 = 0.4991	–	–	–	6.671	6.508	6.358
[1], x2 = 0.6036	–	–	–	7.425	7.224	7.035
[1], x2 = 0.7001	–	–	–	8.239	7.981	7.746
[1], x2 = 0.8007	–	–	–	9.272	8.951	8.651
[1], x2 = 0.8524	–	–	–	9.877	9.521	9.177
[1], x2 = 0.8904	–	–	–	10.381	9.983	9.607
[1], x2 = 0.9402	–	–	–	11.091	10.642	10.222
[2], x2 = 0	1.41807	1.41563	1.41321	–	–	–
[2], x2 = 0.056	1.41916	1.41674	1.41434	–	–	–
[2], x2 = 0.1018	1.41999	1.41761	1.41523	–	–	–
[2], x2 = 0.1463	1.42077	1.4184	1.41604	–	–	–
[2], x2 = 0.2047	1.42171	1.41937	1.41703	–	–	–
[2], x2 = 0.3044	1.4231	1.4208	1.41853	–	–	–
[2], x2 = 0.4059	1.42423	1.42197	1.41974	–	–	–
[2], x2 = 0.5044	1.42503	1.4228	1.42062	–	–	–
[2], x2 = 0.602	1.4255	1.42331	1.42116	–	–	–
[2], x2 = 0.7029	1.42563	1.42351	1.42142	–	–	–
[2], x2 = 0.7979	1.42545	1.42339	1.42136	–	–	–
[2], x2 = 0.8534	1.42521	1.4232	1.4212	–	–	–
[2], x2 = 0.8986	1.42496	1.42299	1.42103	–	–	–
[2], x2 = 0.9472	1.42464	1.42271	1.42079	–	–	–

CCCCCCN [1-hexanamine] + CCCCCO
Settings	refractive index, 293.15 K	refractive index, 298.15 K	refractive index, 303.15 K	relative permittivity, 293.15 K	relative permittivity, 298.15 K	relative permittivity, 303.15 K
[1], x2 = 0	–	–	–	3.967	3.905	3.846
[1], x2 = 0.052	–	–	–	4.248	4.176	4.11
[1], x2 = 0.1079	–	–	–	4.563	4.485	4.408
[1], x2 = 0.1601	–	–	–	4.876	4.785	4.701
[1], x2 = 0.2014	–	–	–	5.146	5.047	4.957
[1], x2 = 0.31	–	–	–	5.924	5.796	5.675
[1], x2 = 0.3982	–	–	–	6.653	6.494	6.348
[1], x2 = 0.5031	–	–	–	7.689	7.486	7.298
[1], x2 = 0.6013	–	–	–	8.827	8.567	8.319
[1], x2 = 0.6916	–	–	–	10.025	9.702	9.397
[1], x2 = 0.7952	–	–	–	11.649	11.246	10.864
[1], x2 = 0.8396	–	–	–	12.419	11.973	11.555
[1], x2 = 0.9006	–	–	–	13.582	13.084	12.61
[1], x2 = 0.9431	–	–	–	14.457	13.913	13.397
[2], x2 = 0	1.41813	1.41563	1.41324	–	–	–
[2], x2 = 0.0472	1.41838	1.41592	1.4136	–	–	–
[2], x2 = 0.1005	1.41862	1.41622	1.41392	–	–	–
[2], x2 = 0.1648	1.41884	1.41649	1.41424	–	–	–
[2], x2 = 0.2022	1.41896	1.4166	1.41438	–	–	–
[2], x2 = 0.3102	1.41908	1.41679	1.41458	–	–	–
[2], x2 = 0.3982	1.41895	1.41671	1.41451	–	–	–
[2], x2 = 0.5002	1.41846	1.41623	1.41407	–	–	–
[2], x2 = 0.6005	1.41756	1.41543	1.41329	–	–	–
[2], x2 = 0.7122	1.41609	1.41403	1.41193	–	–	–
[2], x2 = 0.7963	1.41463	1.41259	1.41054	–	–	–
[2], x2 = 0.8457	1.41364	1.41164	1.40958	–	–	–
[2], x2 = 0.8982	1.41246	1.41048	1.40844	–	–	–
[2], x2 = 0.9362	1.41153	1.40957	1.40754	–	–	–
